From paper PMC8497620, “Structure and inhibition of Cryptococcus neoformans sterylglucosidase to develop antifungal agents” (Nature Communications, 2021)
Values joined by “and” are separate entries in the source; they are usually repeats but may differ in a detail not shown here. Equal entries are not always repeated.

Tests used:
C. neoformans Sgl1 [1] = biological target: T1, C. neoformans Sgl1 (Cryptococcus neoformans var. grubii, UniProt J9W473); experiment: Kinetic evaluation of erg-glc and C6-NBD-GlcCer hydrolysis by Sgl1 (Triton X-100 mixed micelles, HPLC); format: biochemical; conditions: for Km, Michaelis-Menten best-fit value / Vmax, Michaelis-Menten best-fit value, Turnover: source data Fig 1d; for KM: substrate of Sgl1, Triton X-100 mixed micelles, 37 °C
Method: A 50 μL volume of Cn Sgl1 wild type and 50 μL of mixed micelles of lipid and Triton X-100 in 50 mM Bis-Tris buffer with 150 mM NaCl, 5 mM βME, and 5 mM DTT were mixed and incubated at 37 °C for 10 min (erg-glc, Avanti Polar Lipids) and 1 h (C6-NBD-glcCer, Matreya). For the substrate erg-glc the amount of protein was 5 ng. 150 ng protein was used for reactions with C6-NBD-GlcCer. After the incubation period, each reaction was quenched with a 2:1 chloroform:methanol solution and the organic phase was collected and dried. Then, the lipid content was resuspended in 50 μL methanol and applied to HPLC (Agilent Technologies). Total erg-glc and ergosterol was detected using absorbance at 282 nm on a C-8 column with a flow rate of 0.5 ml/min in methanol/water 90:10 ratio buffered with 1 mM ammonium formate and 0.2% formic acid. A 85:15 ratio of the same eluent was used for C6-NBD-GlcCer and C6-NBD-ceramide monitoring the fluorescence at 470/530 nm excitation/emission. The total area of product was normalized by the total area of its respective substrate.

C. neoformans Sgl1 [2] = biological target: T1, C. neoformans Sgl1; experiment: Sgl1 inhibition with res-glp substrate (HTS, single-compound dose-response); format: biochemical; conditions: res-glp as substrate (100 µM), primary screen; read-out: IC50 against Sgl1
Method: (§1) Resorufin-3β-D-glucopyranoside (res-glp, Sigma-Aldrich) enzyme kinetic assays were performed according to methods described by Urban et al.[16] with modifications. Reaction buffer contained 50 mM citric acid, 176 mM K2HPO4, pH 6, 0.01% Tween-20, and 10 mM sodium taurocholate. The reactions were carried out in black 96-well plates using 20 ng of enzyme with 100 μM res-glp substrate. In all, 10 μL/well of res-glp substrate was added to each well and the reaction was initiated by adding 20 μL enzyme (20 ng). After incubation at 37 °C for 30–40 min, the fluorescence was read at an excitation of 570 (±10) nm and an emission of 610 (±10) nm on a VersaMax™ Microplate Reader from Molecular Devices. A standard curve was prepared with serial dilutions of the free fluorophore, resorufin, in the same volume of assay buffer.
A ChemBridge DIVERSet-CL library (San Diego, CA) containing 50,000 compounds was screened to identify small molecules that inhibit C. neoformans Sgl1. The library was prepared in a 96-well plate format containing a cocktail of 10 compounds per well at 1 mM each in 100% DMSO. The cocktail plates were first diluted to 100 μM each (1:10 dilution in Dulbecco’s phosphate-buffered saline, DPBS) resulting in 10% DMSO. In order to screen the compound cocktails at […] in 1% DMSO in a final reaction volume of 30 μL an aliquot of 3 μL was added to 17 μL of buffer containing 20 ng of enzyme and the reaction was started adding 10 μL of 100 μM res-glp. A negative control without enzyme and positive controls with and without DMSO were prepared. The plates were incubated at 37 °C for 40 min.
The Z′-factor was used for the assessment of the efficiency of the HTS assay for each individual plate. Values greater than 0.5 has been considered as an indicator of an excellent screening assay quality.

[3] = test system: human lung epithelial cancer cell line A549; conditions: A549 cells, 24 h, MTT
Method: The cells were maintained in Dulbecco’s modified eagle medium containing 10% fetal bovine serum and 1% penicillin–streptomycin. At passage 11, 10^5 cells were transferred into each well of 96-well plates and cultured for 18–24 h for the cells to adhere to the well surface. After, the medium was removed and a fresh medium containing the selected compounds at a concentration range of 1–512 μM were added to the wells. Controls with equivalent serial concentrations of DMSO were also evaluated and compared with a control without DMSO. The plate was incubated at 37 °C with 5% CO2. After 24 h, the supernatant was removed and 50 μL of 5 mg/mL 3-(4,5-dimethylthiazol-2-yl)-2,5-diphenyltetrazoliumbromide (MTT) solution in phosphate-buffered saline (PBS) was added to each well. The plates were incubated for an additional 4 h and the formazan crystals formed inside the cell was dissolved by adding 50 μL DMSO.

C. neoformans Sgl1 [4] = experiment: Resorufin-3β-D-glucopyranoside enzyme kinetic assay and HTS assay parameters; format: biochemical, Cryptococcus neoformans; conditions: for Picomol of resorufin produced: time 20 min, 8 replicates
Method: as §1, with “buffer. All reactions were linear with respect to time and protein concentration and the pH, temperature, and dimethyl sulfoxide (DMSO) optimal tolerance was verified.” for “buffer.”
Supplementary Figure 6. High-throughput screening assay parameters. a. Resorufin 3β-D-glucopyranoside (res-glp) hydrolysis by Sgl1 releases the fluorescent product resorufin and glucose. b. Detection linearity of the system. c. Temperature evaluation of Sgl1 activity (n=6). d.
Reaction dependence on pH (n=4). e. DMSO tolerance (n=6). f. Enzyme concentration linearity (n=4). The reaction is linear up to 0.4 pmol of Sgl1 in presence of the substrate res-glp (100 µM). Data presented as mean values +/- SD of 2-3 independent experiments performed in duplicate (c-f). g.Time linearity until 50 min (n=4). h. Eight substrate concentrations tested with 0.2 pmol of Sgl1 until 20 min. i. Kinetic curve of Sgl1 (n=4). Error bars represent standard deviation of four independent experiments performed in technical duplicates. j. Kinetic parameters of Sgl1 reaction with res-glp.
(1 picture or pasted object on this page, not shown here)

T1 sequence (J9W473 entry or part of it): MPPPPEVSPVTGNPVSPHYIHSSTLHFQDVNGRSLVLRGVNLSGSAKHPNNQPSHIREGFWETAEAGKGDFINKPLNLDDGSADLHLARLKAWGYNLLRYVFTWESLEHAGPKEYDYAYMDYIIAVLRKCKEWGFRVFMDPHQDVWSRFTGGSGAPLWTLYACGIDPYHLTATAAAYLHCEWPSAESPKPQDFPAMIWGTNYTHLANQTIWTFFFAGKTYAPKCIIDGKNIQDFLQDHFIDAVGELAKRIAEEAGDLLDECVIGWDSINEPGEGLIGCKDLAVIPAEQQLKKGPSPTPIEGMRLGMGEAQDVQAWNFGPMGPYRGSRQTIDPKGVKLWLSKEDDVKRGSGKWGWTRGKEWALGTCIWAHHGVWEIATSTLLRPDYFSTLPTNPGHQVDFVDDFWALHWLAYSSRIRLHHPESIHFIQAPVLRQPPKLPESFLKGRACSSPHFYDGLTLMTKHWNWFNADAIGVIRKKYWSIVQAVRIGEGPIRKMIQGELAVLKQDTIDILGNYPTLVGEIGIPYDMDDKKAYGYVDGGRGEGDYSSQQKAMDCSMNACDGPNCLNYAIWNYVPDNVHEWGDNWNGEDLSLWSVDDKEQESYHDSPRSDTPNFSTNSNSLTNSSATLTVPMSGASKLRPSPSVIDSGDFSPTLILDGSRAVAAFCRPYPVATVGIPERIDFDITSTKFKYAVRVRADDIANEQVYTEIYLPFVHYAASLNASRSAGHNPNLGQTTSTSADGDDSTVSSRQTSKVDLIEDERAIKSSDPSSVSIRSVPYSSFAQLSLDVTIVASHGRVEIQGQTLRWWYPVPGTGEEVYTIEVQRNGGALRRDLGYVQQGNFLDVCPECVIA

CCCCCCCCCCCCCC=CC(O)C(COC1OC(CO)C(O)C(O)C1O)NC(=O)CCCCCNc1ccc([N+](=O)[O-])c2nonc12 (stereo not drawn) [C6-NBD-GlcCer, C6-NBD-glucosylceramide]
Turnover (mol C6-NBD-Ceramide / sec/ mol enzyme) (C. neoformans Sgl1 [1]; 0.3 mol% C6-NBD-GlcCer): 0.0009 mol C6-NBD-Ceramide / sec/ mol enzyme and 0.0010 mol C6-NBD-Ceramide / sec/ mol enzyme
Turnover (mol C6-NBD-Ceramide / sec/ mol enzyme) (C. neoformans Sgl1 [1]; 0.7 mol% C6-NBD-GlcCer): 0.0024 mol C6-NBD-Ceramide / sec/ mol enzyme and 0.0025 mol C6-NBD-Ceramide / sec/ mol enzyme
Turnover (mol C6-NBD-Ceramide / sec/ mol enzyme) (C. neoformans Sgl1 [1]; 1.0 mol% C6-NBD-GlcCer): 0.0039 mol C6-NBD-Ceramide / sec/ mol enzyme and 0.0038 mol C6-NBD-Ceramide / sec/ mol enzyme
Turnover (mol C6-NBD-Ceramide / sec/ mol enzyme) (C. neoformans Sgl1 [1]; 1.5 mol% C6-NBD-GlcCer): 0.0051 mol C6-NBD-Ceramide / sec/ mol enzyme
Turnover (mol C6-NBD-Ceramide / sec/ mol enzyme) (C. neoformans Sgl1 [1]; 2.0 mol% C6-NBD-GlcCer): 0.0066 mol C6-NBD-Ceramide / sec/ mol enzyme and 0.0051 mol C6-NBD-Ceramide / sec/ mol enzyme
Turnover (mol C6-NBD-Ceramide / sec/ mol enzyme) (C. neoformans Sgl1 [1]; 2.5 mol% C6-NBD-GlcCer): 0.0073 mol C6-NBD-Ceramide / sec/ mol enzyme and 0.0067 mol C6-NBD-Ceramide / sec/ mol enzyme
Turnover (mol C6-NBD-Ceramide / sec/ mol enzyme) (C. neoformans Sgl1 [1]; 3.0 mol% C6-NBD-GlcCer): 0.0085 mol C6-NBD-Ceramide / sec/ mol enzyme and 0.0080 mol C6-NBD-Ceramide / sec/ mol enzyme
Turnover (mol C6-NBD-Ceramide / sec/ mol enzyme) (C. neoformans Sgl1 [1]; 3.5 mol% C6-NBD-GlcCer): 0.0076 mol C6-NBD-Ceramide / sec/ mol enzyme and 0.0074 mol C6-NBD-Ceramide / sec/ mol enzyme
Turnover (mol C6-NBD-Ceramide / sec/ mol enzyme) (C. neoformans Sgl1 [1]; 4.0 mol% C6-NBD-GlcCer): 0.0074 mol C6-NBD-Ceramide / sec/ mol enzyme and 0.0082 mol C6-NBD-Ceramide / sec/ mol enzyme
Turnover (mol C6-NBD-Ceramide / sec/ mol enzyme) (C. neoformans Sgl1 [1]; 4.5 mol% C6-NBD-GlcCer): 0.0064 mol C6-NBD-Ceramide / sec/ mol enzyme and 0.0070 mol C6-NBD-Ceramide / sec/ mol enzyme
Turnover (mol C6-NBD-Ceramide / sec/ mol enzyme) (C. neoformans Sgl1 [1]; 5.0 mol% C6-NBD-GlcCer): 0.0075 mol C6-NBD-Ceramide / sec/ mol enzyme and 0.0072 mol C6-NBD-Ceramide / sec/ mol enzyme
Km, Michaelis-Menten best-fit value (C. neoformans Sgl1 [1]): 1.734 mol%
Vmax, Michaelis-Menten best-fit value, Turnover (C. neoformans Sgl1 [1]): 0.01082 s⁻¹
KM (C. neoformans Sgl1 [1]): 1.73 ± 0.37 mol%

Cc1[nH]c2ccc(CNc3nccc(N)n3)cc2c1C [Hit 6]
IC50 (C. neoformans Sgl1 [2]): 2 µM
LD50 (lethal dose 50) [3]: 181.3 µM

Cc1ccsc1CN(CCN(C)C)Cc1ccc2nonc2c1 [Hit 10]
LD50 (lethal dose 50) [3]: 301.8 µM

O=c1ccc2nc3ccc(O[C@@H]4O[C@H](CO)[C@@H](O)[C@H](O)[C@H]4O)cc3oc-2c1 [Resorufin 3β-D-glp, resorufin-3β-D-glucopyranoside, reference compound]
Turnover, min-1 (Mean) (C. neoformans Sgl1 [4]; 0.8 µM Resorufin 3β-D-glp): 0.1166 min⁻¹
Turnover, min-1 (Mean) (C. neoformans Sgl1 [4]; 1.6 µM Resorufin 3β-D-glp): 0.2022 min⁻¹
Turnover, min-1 (Mean) (C. neoformans Sgl1 [4]; 3.125 µM Resorufin 3β-D-glp): 0.2828 min⁻¹
Turnover, min-1 (Mean) (C. neoformans Sgl1 [4]; 6.25 µM Resorufin 3β-D-glp): 0.5182 min⁻¹
Turnover, min-1 (Mean) (C. neoformans Sgl1 [4]; 12.5 µM Resorufin 3β-D-glp): 0.7736 min⁻¹
Turnover, min-1 (Mean) (C. neoformans Sgl1 [4]; 25 µM Resorufin 3β-D-glp): 1.399 min⁻¹
Turnover, min-1 (Mean) (C. neoformans Sgl1 [4]; 50 µM Resorufin 3β-D-glp): 2.307 min⁻¹
Turnover, min-1 (Mean) (C. neoformans Sgl1 [4]; 100 µM Resorufin 3β-D-glp): 3.899 min⁻¹
Vmax, Michaelis-Menten best-fit value, Turnover (C. neoformans Sgl1 [4]; res-glp as Sgl1 substrate, source data Fig S6i): 9.522 min⁻¹
Km (C. neoformans Sgl1 [4]; res-glp as Sgl1 substrate, source data Fig S6i, read-out: Km, Michaelis-Menten best-fit value): 147 µM

CC(C)[C@@H](C)/C=C/[C@@H](C)[C@H]1CC[C@H]2C3=CC=C4C[C@@H](O[C@@H]5O[C@H](CO)[C@@H](O)[C@H](O)[C@H]5O)CC[C@]4(C)[C@H]3CC[C@]12C [erg-glc, ergosterol 3β-D-glucoside]
Turnover (mol ergosterol / sec/ mol enzyme) (C. neoformans Sgl1 [1]; 0.07 mol% Erg-glc): 0.1064 mol ergosterol / sec/ mol enzyme and 0.1082 mol ergosterol / sec/ mol enzyme
Turnover (mol ergosterol / sec/ mol enzyme) (C. neoformans Sgl1 [1]; 0.10 mol% Erg-glc): 0.1849 mol ergosterol / sec/ mol enzyme and 0.1742 mol ergosterol / sec/ mol enzyme
Turnover (mol ergosterol / sec/ mol enzyme) (C. neoformans Sgl1 [1]; 0.20 mol% Erg-glc): 0.3045 mol ergosterol / sec/ mol enzyme and 0.2862 mol ergosterol / sec/ mol enzyme
Turnover (mol ergosterol / sec/ mol enzyme) (C. neoformans Sgl1 [1]; 0.50 mol% Erg-glc): 0.4688 mol ergosterol / sec/ mol enzyme and 0.4091 mol ergosterol / sec/ mol enzyme
Turnover (mol ergosterol / sec/ mol enzyme) (C. neoformans Sgl1 [1]; 0.90 mol% Erg-glc): 0.6080 mol ergosterol / sec/ mol enzyme and 0.5033 mol ergosterol / sec/ mol enzyme
Turnover (mol ergosterol / sec/ mol enzyme) (C. neoformans Sgl1 [1]; 1.20 mol% Erg-glc): 0.5944 mol ergosterol / sec/ mol enzyme and 0.5189 mol ergosterol / sec/ mol enzyme
Turnover (mol ergosterol / sec/ mol enzyme) (C. neoformans Sgl1 [1]; 2.00 mol% Erg-glc): 0.6438 mol ergosterol / sec/ mol enzyme and 0.6016 mol ergosterol / sec/ mol enzyme
Km, Michaelis-Menten best-fit value (C. neoformans Sgl1 [1]): 0.3118 mol%
Vmax, Michaelis-Menten best-fit value, Turnover (C. neoformans Sgl1 [1]): 0.721 s⁻¹
KM (C. neoformans Sgl1 [1]): 0.31 ± 0.04 mol%

O=c1ccc2nc3ccc(O)cc3oc-2c1 [resorufin]
Picomol of resorufin produced (C. neoformans Sgl1 [4]; substrate concentration 0.8 µM): 13.6869 Picomol and 10.2624 Picomol and 15.333 Picomol and 8.2899 Picomol and 7.897 Picomol and 8.1513 Picomol and 7.834 Picomol and 9.766 Picomol
Picomol of resorufin produced (C. neoformans Sgl1 [4]; substrate concentration 1.6 µM): 22.652 Picomol and 16.8084 Picomol and 22.0089 Picomol and 13.8077 Picomol and 14.311 Picomol and 13.7411 Picomol and 16.5589 Picomol and 17.8661 Picomol
Picomol of resorufin produced (C. neoformans Sgl1 [4]; substrate concentration 3.125 µM): 38.3651 Picomol and 20.7516 Picomol and 22.1703 Picomol and 24.2149 Picomol and 22.4235 Picomol and 18.9404 Picomol and 21.8512 Picomol and 25.5122 Picomol
Picomol of resorufin produced (C. neoformans Sgl1 [4]; substrate concentration 6.25 µM): 43.9839 Picomol and 34.2216 Picomol and 50.5101 Picomol and 33.7929 Picomol and 44.5629 Picomol and 40.9973 Picomol and 53.26 Picomol and 50.9019 Picomol
Picomol of resorufin produced (C. neoformans Sgl1 [4]; substrate concentration 12.5 µM): 71.213 Picomol and 36.0642 Picomol and 41.6688 Picomol and 71.5524 Picomol and 70.9838 Picomol and 75.8794 Picomol and 76.3919 Picomol and 81.7237 Picomol
Picomol of resorufin produced (C. neoformans Sgl1 [4]; substrate concentration 25 µM): 72.1659 Picomol and 113.232 Picomol and 127.381 Picomol and 122.744 Picomol and 134.032 Picomol and 119.303 Picomol and 123.078 Picomol and 139.365 Picomol
Picomol of resorufin produced (C. neoformans Sgl1 [4]; substrate concentration 50 µM): 180.011 Picomol and 203.084 Picomol and 186.676 Picomol and 209.238 Picomol and 194.059 Picomol and 207.198 Picomol and 188.267 Picomol and 183.529 Picomol
Picomol of resorufin produced (C. neoformans Sgl1 [4]; substrate concentration 100 µM): 305.03 Picomol and 313.72 Picomol and 318.728 Picomol and 338.834 Picomol and 336.378 Picomol and 332.942 Picomol and 323.184 Picomol and 353.074 Picomol
